# Species on record: Rattus norvegicus
# Assay: DrugMatrix - Regimen: Daily Repeat
# Type: toxicity, organism-based, Sprague-Dawley
# Design: regimen Daily Repeat, gender Male, age 6-8 weeks
# Details: in vivo, po, route oral GAVAGE, vehicle .5 % CMC; for ABSOLUTE BASOPHIL / ABSOLUTE EOSINOPHIL / ABSOLUTE LYMPHOCYTE / ABSOLUTE MONOCYTE / ABSOLUTE SEGMENTED NEUTROPHIL / BASOPHIL / EOSINOPHIL / ERYTHROCYTE COUNT / HEMATOCRIT / HEMOGLOBIN / LEUKOCYTE COUNT / LYMPHOCYTE / MEAN CORPUSCULAR HEMOGLOBIN / MEAN CORPUSCULAR HEMOGLOBIN CONCENTRATION / MEAN CORPUSCULAR VOLUME / MONOCYTE / NEUTROPHIL / NUCLEATED RED BLOOD CELLS / PLATELET COUNT: tissue Blood; for ALANINE AMINOTRANSFERASE / ALBUMIN / ALKALINE PHOSPHATASE / ASPARTATE AMINOTRANSFERASE / BLOOD UREA NITROGEN / CARBON DIOXIDE / CHLORIDE / CHOLESTEROL / CREATINE PHOSPHOKINASE / CREATININE / GLUCOSE / LACTATE DEHYDROGENASE / LIPASE / PHOSPHORUS / POTASSIUM / SODIUM / TOTAL BILIRUBIN / TOTAL PROTEIN / URIC ACID: tissue Plasma
# [1] = 100 mg/kg, 120 h, dose level Low, time 5 day
# [2] = 1500 mg/kg, 72 h, dose level High, time 3 day
# [3] = 1500 mg/kg, 120 h, dose level High, time 5 day
compound,measurement,setting,value
O=C(O)CCc1nc(-c2ccccc2)c(-c2ccccc2)o1 [OXAPROZIN],ABSOLUTE BASOPHIL,[1],0 CELLS/uL
same,ABSOLUTE EOSINOPHIL,[1],50.33 CELLS/uL
same,ABSOLUTE LYMPHOCYTE,[1],11457 CELLS/uL
same,ABSOLUTE MONOCYTE,[1],176 CELLS/uL
same,ABSOLUTE SEGMENTED NEUTROPHIL,[1],1916.67 CELLS/uL
same,BASOPHIL,[1],0%
same,EOSINOPHIL,[1],0.33%
same,ERYTHROCYTE COUNT,[1],5.42 x10E6/uL
same,HEMATOCRIT,[1],34.23%
same,HEMOGLOBIN,[1],13.93 G/DL
same,LEUKOCYTE COUNT,[1],13.6 x10E3/uL
same,LYMPHOCYTE,[1],84%
same,MEAN CORPUSCULAR HEMOGLOBIN,[1],25.7 pg
same,MEAN CORPUSCULAR HEMOGLOBIN CONCENTRATION,[1],40.67 G/DL
same,MEAN CORPUSCULAR VOLUME,[1],63.1 fL
same,MONOCYTE,[1],1.33%
same,NEUTROPHIL,[1],14.33%
same,NUCLEATED RED BLOOD CELLS,[1],0 /100WBC
same,PLATELET COUNT,[1],1354 x10E3/uL
same,ALANINE AMINOTRANSFERASE,[1],54.67 u/L
same,ALBUMIN,[1],4.3 G/DL
same,ALKALINE PHOSPHATASE,[1],418.33 u/L
same,ASPARTATE AMINOTRANSFERASE,[1],81.67 u/L
same,BLOOD UREA NITROGEN,[1],16 mg/dL
same,CARBON DIOXIDE,[1],26.67 mmol/L
same,CHLORIDE,[1],102.67 MEQ/L
same,CHOLESTEROL,[1],57.67 mg/dL
same,CREATINE PHOSPHOKINASE,[1],284.33 u/L
same,CREATININE,[1],0.2 mg/dL
same,GLUCOSE,[1],154 mg/dL
same,LACTATE DEHYDROGENASE,[1],102.67 u/L
same,LIPASE,[1],9.33 u/L
same,PHOSPHORUS,[1],12.87 mg/dL
same,POTASSIUM,[1],6.84 MEQ/L
same,SODIUM,[1],145.4 MEQ/L
same,TOTAL BILIRUBIN,[1],0.23 mg/dL
same,TOTAL PROTEIN,[1],6.2 G/DL
same,URIC ACID,[1],1.83 mg/dL
same,ABSOLUTE BASOPHIL,[2],0 CELLS/uL
same,ABSOLUTE EOSINOPHIL,[2],0 CELLS/uL
same,ABSOLUTE LYMPHOCYTE,[2],11713.67 CELLS/uL
same,ABSOLUTE MONOCYTE,[2],379.33 CELLS/uL
same,ABSOLUTE SEGMENTED NEUTROPHIL,[2],2140.33 CELLS/uL
same,BASOPHIL,[2],0%
same,EOSINOPHIL,[2],0%
same,ERYTHROCYTE COUNT,[2],5.87 x10E6/uL
same,HEMATOCRIT,[2],37.03%
same,HEMOGLOBIN,[2],14.47 G/DL
same,LEUKOCYTE COUNT,[2],14.23 x10E3/uL
same,LYMPHOCYTE,[2],82.33%
same,MEAN CORPUSCULAR HEMOGLOBIN,[2],24.63 pg
same,MEAN CORPUSCULAR HEMOGLOBIN CONCENTRATION,[2],39.07 G/DL
same,MEAN CORPUSCULAR VOLUME,[2],63.17 fL
same,MONOCYTE,[2],2.67%
same,NEUTROPHIL,[2],15%
same,NUCLEATED RED BLOOD CELLS,[2],0 /100WBC
same,PLATELET COUNT,[2],1318.33 x10E3/uL
same,ALANINE AMINOTRANSFERASE,[2],83 u/L
same,ALBUMIN,[2],4.77 G/DL
same,ALKALINE PHOSPHATASE,[2],581 u/L
same,ASPARTATE AMINOTRANSFERASE,[2],86.67 u/L
same,BLOOD UREA NITROGEN,[2],17.33 mg/dL
same,CARBON DIOXIDE,[2],31.33 mmol/L
same,CHLORIDE,[2],99.33 MEQ/L
same,CHOLESTEROL,[2],70 mg/dL
same,CREATINE PHOSPHOKINASE,[2],206 u/L
same,CREATININE,[2],0.24 mg/dL
same,GLUCOSE,[2],118 mg/dL
same,LACTATE DEHYDROGENASE,[2],247.33 u/L
same,LIPASE,[2],8.67 u/L
same,PHOSPHORUS,[2],11.17 mg/dL
same,POTASSIUM,[2],5.96 MEQ/L
same,SODIUM,[2],145.9 MEQ/L
same,TOTAL BILIRUBIN,[2],0.3 mg/dL
same,TOTAL PROTEIN,[2],5.73 G/DL
same,URIC ACID,[2],1.37 mg/dL
same,ABSOLUTE BASOPHIL,[3],0 CELLS/uL
same,ABSOLUTE EOSINOPHIL,[3],0 CELLS/uL
same,ABSOLUTE LYMPHOCYTE,[3],19502.67 CELLS/uL
same,ABSOLUTE MONOCYTE,[3],68 CELLS/uL
same,ABSOLUTE SEGMENTED NEUTROPHIL,[3],3096 CELLS/uL
same,BASOPHIL,[3],0%
same,EOSINOPHIL,[3],0%
same,ERYTHROCYTE COUNT,[3],5.71 x10E6/uL
same,HEMATOCRIT,[3],35.9%
same,HEMOGLOBIN,[3],14.6 G/DL
same,LEUKOCYTE COUNT,[3],22.67 x10E3/uL
same,LYMPHOCYTE,[3],86.33%
same,MEAN CORPUSCULAR HEMOGLOBIN,[3],25.63 pg
same,MEAN CORPUSCULAR HEMOGLOBIN CONCENTRATION,[3],40.7 G/DL
same,MEAN CORPUSCULAR VOLUME,[3],63 fL
same,MONOCYTE,[3],0.33%
same,NEUTROPHIL,[3],13.33%
same,NUCLEATED RED BLOOD CELLS,[3],0.33 /100WBC
same,PLATELET COUNT,[3],1504 x10E3/uL
same,ALANINE AMINOTRANSFERASE,[3],136.67 u/L
same,ALBUMIN,[3],4.57 G/DL
same,ALKALINE PHOSPHATASE,[3],427.67 u/L
same,ASPARTATE AMINOTRANSFERASE,[3],109.67 u/L
same,BLOOD UREA NITROGEN,[3],17.67 mg/dL
same,CARBON DIOXIDE,[3],25.33 mmol/L
same,CHLORIDE,[3],98.67 MEQ/L
same,CHOLESTEROL,[3],83.67 mg/dL
same,CREATINE PHOSPHOKINASE,[3],243 u/L
same,CREATININE,[3],0.35 mg/dL
same,GLUCOSE,[3],126 mg/dL
same,LACTATE DEHYDROGENASE,[3],170.67 u/L
same,LIPASE,[3],11.33 u/L
same,PHOSPHORUS,[3],11.23 mg/dL
same,POTASSIUM,[3],6.06 MEQ/L
same,SODIUM,[3],143.63 MEQ/L
same,TOTAL BILIRUBIN,[3],0.27 mg/dL
same,TOTAL PROTEIN,[3],6 G/DL
same,URIC ACID,[3],1.83 mg/dL
